Laboratory results: patent US7344710B2 (priority 2001, dated 2008)

How the values were obtained:
HCT116 tumor xenograft = test system: HCT116 tumor xenograft; design: species or system mice; settings: mouse, in vivo
B16 tumors = test system: B16 tumors; design: species or system mice; settings: mouse, in vivo
[1] = mouse, in vivo

Substance: COBALT
- Effect on tumor growth (FIG. 6A, 6B) (HCT116 tumor xenograft): tumors actually shrinking rather than simply slowing
- Mice cured / complete tumor regression / long-term tumor-free survival (HCT116 tumor xenograft): four were apparently cured of their tumor and Four of these seven mice were cured and four of eight and half
- Mice developing striking hemorrhagic necrosis of their tumors (HCT116 tumor xenograft): seven of eight
- Time at which a black spot of hemorrhagic necrosis is evident (HCT116 tumor xenograft): 0.3 days
- Visible hemorrhagic necrosis and disappearance of tumors (FIG. 5) (HCT116 tumor xenograft): dramatic effects on large subcutaneous tumors
- Effect on tumor growth (FIG. 6C) (B16 tumors): tumors remained small over the four week course of this experiment
- Deaths after a single dose of COBALT [1]: three of the mice died
- Deaths after the first dose of COBALT [1]: Four mice died
